Data on 1 molecule can be found in publication PMC3502511, “Inhibition of the Prokaryotic Pentameric Ligand-Gated Ion Channel ELIC by Divalent Cations” (PLoS Biology, 2012).

Holding throughout (type): cell-based, Erwinia chrysanthemi
One assay has as its target T1, ELIC D113A/D158A (Dickeya chrysanthemi, UniProt P0C7B7, D113A/D158A/INS163G).
T1 construct: expressed in transfected cells; host or cells: X. laevis oocytes
In words: cell-based. The procedure:
(§1) Constructs containing the gene of either the WT or mutant channels preceded by the signal sequence of the chicken α7nAchR were cloned into the pTLN vector for expression in X. laevis oocytes. After linearization of the plasmid DNA by MluI, capped complementary RNA was transcribed with the mMessage mMachine kit (Ambion) and purified with the RNeasy kit (Qiagen). For expression, 1–50 ng of RNA was injected into defolliculated oocytes. Two-electrode voltage clamp measurements were performed 1 d after injection at 20°C (OC-725B, Warner Instrument Corp.). Currents were recorded in bath solutions containing 10 mM HEPES (pH 7), 130 mM NaCl, and the indicated concentrations of cysteamine and divalent cations. In case of solutions containing Zn^2+, cysteamine was replaced by propylamine. The membrane potential in all dose–response measurements was set to −40 mV. As ELIC is permeable to divalent cations, we tested if endogenous calcium-activated chloride channels affected our measurements. To chelate intracellular calcium ions, the oocytes were incubated for 15 to 30 min in bath solutions lacking divalent ions but containing 10 µM BAPTA-AM.

A further assay addresses T2, ELIC WT (Dickeya chrysanthemi, UniProt P0C7B7, INS163G).
T2 construct: expressed in transfected cells; host or cells: X. laevis oocytes (cRNA injection, pTLN vector)
In words: cell-based. To be noted: Ki app, Schild analysis. The method, then: as §1

The target in the next assay is T3, ELIC R91A (Dickeya chrysanthemi, UniProt P0C7B7, INS163G/R91A).
T3 construct: expressed in transfected cells; host or cells: X. laevis oocytes
In words: Two-electrode voltage clamp, ELIC R91A in oocytes. The procedure:
as §1
On the technique in general: Two-electrode voltage clamp is typically applied to oocytes expressing channels or transporters.

As for `CC(=O)OCC[N+](C)(C)C` [ACh, acetylcholine], the Ki at ELIC D113A/D158A was 2100 µM; at ELIC WT (WT/1 mM Ca^2+), 2200 µM; at ELIC WT (WT/.25 mM Ca^2+) it was 1200 µM; on ELIC WT (WT/.5 mM Ca^2+), 1300 µM; on ELIC WT (WT, agonist cysteamine), 1600 µM; at ELIC R91A it was 170 µM.
